Peptide text beside a SMILES is read from it. * marks the point of attachment. MeOSuc = COC(=O)CCC(=O)*; Cbz = O=C(OCc1ccccc1)*; Boc = CC(C)(C)OC(=O)*; CF3 = FC(F)(F)*
Tests used:
[1] = molecular target: Cathepsin G (Rattus norvegicus); assay: Binding affinity against rat Cathepsin G
[2] = Binding affinity against human Elastase for more active diasteriomer
[3] = molecular target: Neutrophil elastase (Homo sapiens) (UniProt P08246); assay: Binding affinity against human Elastase
Sequence of Neutrophil elastase (Homo sapiens) (P08246 whole entry, looked up): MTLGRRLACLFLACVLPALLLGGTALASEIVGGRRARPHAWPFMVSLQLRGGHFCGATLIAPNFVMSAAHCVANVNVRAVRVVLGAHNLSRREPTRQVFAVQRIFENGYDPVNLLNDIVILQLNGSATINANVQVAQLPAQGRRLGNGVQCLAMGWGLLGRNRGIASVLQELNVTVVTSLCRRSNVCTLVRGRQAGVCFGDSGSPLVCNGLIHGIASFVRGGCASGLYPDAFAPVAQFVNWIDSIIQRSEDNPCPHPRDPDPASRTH

SMILES	Ki [2]	other results
COC(=O)CCC(=O)N[C@H](C(=O)N1CCC[C@H]1C(=O)N[C@@H](Cc1ccccc1)C(=O)C(F)(F)F)C(C)C (MeOSuc-Val-Pro-Phe-CF3)	–	Ki [1]: 200 nM
COC(=O)CCC(=O)NCCCC[C@H](NS(=O)(=O)C12CC3CC(CC(C3)C1)C2)C(=O)N1CCC[C@H]1C(=O)N[C@H](C(=O)C(F)(F)F)C(C)C	0.58 nM	–
COC(=O)C(=O)[C@H](C)NC(=O)[C@@H]1CCCN1C(=O)[C@H](C)NC(=O)[C@@H]1CCCN1C(C)=O	850 nM	–
CC(=O)N[C@@H](C)C(=O)N[C@@H](C)C(=O)N1CCC[C@H]1C(=O)N[C@@H](C)C(=O)C(F)(F)F (Ac-AAPA-CF3)	–	Ki [3]: 24000 nM

Continued by falling Ki [2], values first:

Ki [2]	SMILES	other results
4300 nM	CCOC(=O)C(F)(F)C(=O)[C@@H](NC(=O)[C@@H]1CCCN1C(=O)[C@H](C)NC(=O)[C@H](C)NC(=O)CCC(=O)OC)C(C)C	–
44 nM	CC(C)[C@H](NC(=O)[C@@H]1CCCN1C(=O)[C@H](C)NC(=O)[C@H](C)NC(=O)OC(C)(C)C)C(=O)C(F)(F)F (Boc-AAPV-CF3)	–
1 nM	CC(C)[C@H](NC(=O)[C@@H]1CCCN1C(=O)[C@H](C)NC(=O)[C@H](C)NC(=O)OCc1ccccc1)C(=O)C(F)(F)F (Cbz-AAPV-CF3)	–

Reference: BindingDB's records for doi:10.1021/jm00163a063 (Merrell Dow Research Institute, 1990)
